Data taken from EP4631957A1, “PEPTIDE FOR CARTILAGE REGENERATION, AND USES THEREOF” (Caregen Co., Ltd., priority 2022, dated 2024).
Where a SMILES comes first, the peptide text is derived from it. Where no end group is shown, it is not given here.

Test system: C28/I2 cells
Experiment: CCK-8 cytotoxicity assay in human-derived chondrocytes
Assay type: cell-based
Settings: peptide at different concentrations, 3 days, read at 450 nm, FIG. 1 and FIG. 2
Description: The cytotoxicity of Peptide-1 or Peptide-2 upon addition to human-derived chondrocytes (C28/I2, human chondrocyte cell line) was analyzed using a CCK-8 assay.
Specifically, human-derived chondrocytes were seeded in a 96-well plate at a density of 3 × 10^3 cells/well and cultured in DMEM medium (cat. 11995-065, Gibco) for 24 hours. […] Meanwhile, as a negative control group (CON), an experimental group to which the peptide was not added was used.

Compound	toxicity in human-derived chondrocytes (CCK-8 activity)
N=C(N)NCCC[C@H](N)C(=O)N[C@@H](Cc1ccc(O)cc1)C(=O)N[C@@H](Cc1ccccc1)C(=O)O [Peptide-1, Arg(R)-Tyr(Y)-Phe(F)] (H-Arg-Tyr-Phe-OH)	did not exhibit toxicity
TAVRVG [Peptide-2]	did not exhibit toxicity
